Results: patent US20150250175A1, “PESTICIDALLY ACTIVE MIXTURES COMPRISING ANTHRANILAMIDE COMPOUNDS” (BASF SE, priority 2012, published 2015)

Experiments:
[1] = test system: Mediterranean fruitfly (Ceratitis capitata); assay: Mediterranean fruitfly (Ceratitis capitata) control, insect diet with eggs, 96-well plates; settings: 5 days
[2] = test system: tobacco budworm (Heliothis virescens); assay: Tobacco budworm (Heliothis virescens) control, insect diet with eggs, 96-well plates; settings: 5 days
[3] = test system: vetch aphid (Megoura viciae); assay: Vetch aphid (Megoura viciae) control, broad bean leaf disks in 24-well microtiter plates; format: in vivo; settings: sprayed on leaf disks, aphid mortality and fecundity after 5 days
Description: After application, the leaf disks were air-dried and 5-8 adult aphids placed on the leaf disks inside the microtiter plate wells. […] Aphid mortality and fecundity was then visually assessed.

[4] = test system: green peach aphid (Myzus persicae); assay: Green peach aphid (Myzus persicae) control, systemic, artificial diet under membrane, 96-well plates; format: in vivo; settings: 3 days
Description: After application, 5-8 adult aphids were placed on the artificial membrane inside the microtiter plate wells. […] Aphid mortality and fecundity was then visually assessed.

[5] = test system: boll weevil (Anthonomus grandis); assay: Boll weevil (Anthonomus grandis) control, insect diet with eggs, 24-well plates; settings: 5 days
[6] = 0.08 + 0 ppm (mixing partner alone at 0.08 ppm)
[7] = 0 + 1 ppm (compound I alone at 1 ppm)
[8] = 0 + 0.2 ppm (compound I alone at 0.2 ppm)
[9] = 0 + 5 ppm (compound I alone at 5 ppm)
[10] = 3.2 + 0 ppm (mixing partner alone at 3.2 ppm)
[11] = 0.0016 + 0 ppm (mixing partner alone at 0.0016 ppm)

CN/C(=N\[N+](=O)[O-])NCc1cnc(Cl)s1 [Clothianidin]
Average (Control %) ([1]; 1 + 0 ppm (mixing partner alone at 1 ppm)): 0% | Average (Control %) [2, 6]: 0%

CCS(CC)=NC(=O)c1cc(Cl)cc(C)c1NC(=O)c1cc(C(F)(F)F)nn1-c1ncccc1Cl [Compound I-11, 2-(3-chloro-2-pyridyl)-N-[2-methyl-4-chloro-6-[(diethyl-λ^4-sulfanylidene)carbamoyl]phenyl]-5-(trifluoromethyl)pyrazole-3-carboxamide]
Average (Control %) ([3]; Spirotetramat + I-11 at 0 + 1 ppm (I-11 alone, 1 ppm)): 0% | Average (Control %) [4, 7]: 0% | Average (Control %) [2, 8]: 0% | Average (Control %) [5, 7]: 0%

CCS(CC)=NC(=O)c1cc(Cl)cc(Cl)c1NC(=O)c1cc(C(F)(F)F)nn1-c1ncccc1Cl [Compound I-16, 2-(3-chloro-2-pyridyl)-N-[2,4-dichloro-6-[(diethyl-λ^4-sulfanylidene)carbamoyl]phenyl]-5-(trifluoromethyl)pyrazole-3-carboxamide]
Average (Control %) [4, 7]: 25% | Average (Control %) [1, 9]: 0% | Average (Control %) [2, 7]: 0%

Cc1cc(Cl)cc(C(=O)N=S(C(C)C)C(C)C)c1NC(=O)c1cc(C(F)(F)F)nn1-c1ncccc1Cl [Compound I-21, 2-(3-chloro-2-pyridyl)-N-[2-methyl-4-chloro-6-[(bis-2-propyl-λ^4-sulfanylidene)carbamoyl]phenyl]-5-(trifluoromethyl)pyrazole-3-carboxamide]
Average (Control %) [1, 9]: 0% | Average (Control %) [2, 8]: 0% | Average (Control %) [2, 7]: 50% | Average (Control %) [5, 9]: 0%

CC[S+]([O-])c1c(C#N)nn(-c2c(Cl)cc(C(F)(F)F)cc2Cl)c1N (centres unmarked) [Ethiprol]
Average (Control %) ([1]; 10 + 0 ppm (mixing partner alone at 10 ppm)): 0% | Average (Control %) [2, 6]: 0% | Average (Control %) ([5]; 2 + 0 ppm (mixing partner alone at 2 ppm)): 50%

CCOC(=O)OC1=C(c2cc(C)ccc2C)C(=O)N[C@]12CC[C@@H](OC)CC2 [Spirotetramat, spirotetramat, reference compound]
Average (Control %) ([3]; Spirotetramat + I-11 at 80 + 0 ppm (Spirotetramat alone, 80 ppm)): 25% | Average (Control %) [4, 10]: 0% | Average (Control %) ([4]; 80 + 0 ppm (mixing partner alone at 80 ppm)): 50% | Average (Control %) [2, 10]: 0%

N#C/N=C1\SCCN1Cc1ccc(Cl)nc1 [Thiacloprid]
Average (Control %) [4, 11]: 50% | Average (Control %) [5, 11]: 0%

Spinosad
Average (Control %) [1, 6]: 0% | Average (Control %) [2, 6]: 0% | Average (Control %) ([2]; 0.4 + 0 ppm (mixing partner alone at 0.4 ppm)): 0% | Average (Control %) [5, 6]: 0%
